Laboratory results: US20110207726A1, “Inhibitors of Human Cathepsin L, Cathepsin B, and Cathepsin S” (The Trustees of the University of Pennsylvania, priority 2008, published 2011)
Read-outs that look alike come from different tables or passages of the source.

Target: T1, Human neutrophil cathepsin G (Homo sapiens, UniProt P08311)
T1 construct: Human neutrophil cathepsin G (Calbiochem 219373, 4.2 μg/mL); purchased Calbiochem 219373; host or cells: human neutrophils
T1 sequence (P08311 21-243 limits assumed): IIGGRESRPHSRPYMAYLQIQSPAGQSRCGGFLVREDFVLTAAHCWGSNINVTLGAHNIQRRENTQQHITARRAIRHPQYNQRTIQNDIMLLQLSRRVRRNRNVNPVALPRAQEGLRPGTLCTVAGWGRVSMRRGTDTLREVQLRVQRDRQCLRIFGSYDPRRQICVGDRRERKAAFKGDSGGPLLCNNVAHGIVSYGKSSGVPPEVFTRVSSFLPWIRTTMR
Assay: Selectivity assay, cathepsin G
Format: biochemical
Settings: for IC50: Cathepsin G, no preincubation
Procedure: Compound No. 1 was assayed for inhibition against papain and cathepsins B, G, K, S, and V. Papain from Carica papaya (Calbiochem 5125, 11 ng/mL), human cathepsin K (Calbiochem 342001, 35 ng/mL), human spleen cathepsin S (Calbiochem 219344, 40 ng/mL), and human cathepsin V (Calbiochem 219467, 39 ng/ml) were assayed using Z-Phe-Arg-AMC substrate at 20 μM, 20 μM, 15 μM, and 1 μM, respectively. Human liver cathepsin B (Calbiochem 219362, 65 ng/mL) was assayed using 15 μM Z-Arg-Arg-AMC substrate (Bachem I-1135). Human neutrophil cathepsin G (Calbiochem 219373, 4.2 μg/mL) was assayed using 15 μM Suc-Ala-Ala-Pro-Phe-AMC substrate (Sigma S9761). All reactions were performed in 20 mM sodium acetate buffer containing 5 mM cysteine and 1 mM EDTA, pH 5.5. Reaction progress was monitored using the Envision microplate reader. IC50 values were measured in triplicate.

Structure (SMILES): CCc1ccccc1NC(=O)CSC(=O)NNC(=O)[C@H](Cc1c[nH]c2ccccc12)NC(=O)OC(C)(C)C [Compound No. 1]
- inhibitory activity against cathepsin G (in words): no inhibitory activity
- IC50 (human neutrophil, 10 min): > 50 µM
- IC50 (30 min, read-out: IC50 @ 30 min): > 50 µM
- IC50 (60 min, read-out: IC50 @ 60 min): > 50 µM
- IC50 (90 min, read-out: IC50 @ 90 min): > 50 µM
